Earlier results as cited in patent publication US20170096549A1, “MULTIVALENT CATION FORMULATIONS OF PARTIALLY DESULFATED HEPARINS” (Cantex Pharmaceuticals, Inc., priority 2014, published 2017).
Like-named read-outs stand apart in the source and are kept apart here.

Assays:
[1] = system: anti-coagulant activity
[2] = target: Xa (Homo sapiens, UniProt P00742)
[3] = target: anti-thrombin III (Homo sapiens, UniProt P01008)
[4] = target: IIa (Homo sapiens, UniProt P00734+P01008)

Chain of anti-thrombin III (P01008 33-464, species assumed): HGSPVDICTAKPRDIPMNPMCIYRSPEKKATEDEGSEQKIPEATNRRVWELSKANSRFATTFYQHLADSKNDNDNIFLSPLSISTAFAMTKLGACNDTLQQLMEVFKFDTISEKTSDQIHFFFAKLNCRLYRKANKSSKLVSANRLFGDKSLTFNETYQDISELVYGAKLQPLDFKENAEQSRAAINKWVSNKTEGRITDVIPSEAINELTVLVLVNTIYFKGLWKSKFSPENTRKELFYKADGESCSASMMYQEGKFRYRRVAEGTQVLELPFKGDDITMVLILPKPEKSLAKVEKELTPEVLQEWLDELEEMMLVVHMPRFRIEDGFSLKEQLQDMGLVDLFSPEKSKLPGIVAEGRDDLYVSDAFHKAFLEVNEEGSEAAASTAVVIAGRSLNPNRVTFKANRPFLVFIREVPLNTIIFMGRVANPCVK
Chain of Xa (P01008 33-464 partner): as the sequence (P01008 33-464, species assumed) above
Chain of Xa (P00742 235-488 limits assumed): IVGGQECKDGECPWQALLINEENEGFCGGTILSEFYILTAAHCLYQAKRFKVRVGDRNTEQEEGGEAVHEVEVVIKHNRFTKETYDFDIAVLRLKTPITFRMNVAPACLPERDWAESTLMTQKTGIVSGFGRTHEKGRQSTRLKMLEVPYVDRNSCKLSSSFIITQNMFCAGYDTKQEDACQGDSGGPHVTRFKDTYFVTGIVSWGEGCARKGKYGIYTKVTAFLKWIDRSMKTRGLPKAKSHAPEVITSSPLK

Substance: Unfractionated heparin
- anti-coagulant activity in the USP anti-coagulant assay [1]: 165-190 U/mg
- anti-Xa activity [2]: 165-190 U/mg
- Kd for anti-thrombin III [3]: ~22 µg/mL
- Kd ([3]; listed as heparin): 1560 nM
- Kd ([3]; listed as unfractionated heparin): ~1560 nM
- anti-IIa activity [4]: 165-190 U/mg
